Test results: ChEMBL document CHEMBL1201862, “PubChem BioAssay data set” (2004)
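Briefly, cells in 96-well plates were exposed to five compound concentrations for 48 h, and endpoints were estimated by linear interpolation. Abbreviation: GI50, concentration required for 50% inhibition of growth.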 Calls of active or inactive are those of the source. Cut-off read from the data, not from the text of the source: active = GI50 up to about 1.1 µM and inactive = higher.

Experiments:
Assay in all cases: NCI anticancer screen, dose series, 48 h
[1] = system: ACHN
[2] = system: CAKI-1
[3] = system: DU-145
[4] = system: KM12
[5] = system: M14
[6] = system: MDA-MB-231
[7] = system: MDA-MB-435
[8] = system: NCI-H23
[9] = system: RPMI-8226
[10] = system: RXF 393
[11] = system: SF-295
[12] = system: SF-539
[13] = system: SK-OV-3
[14] = system: SR
[15] = system: SW-620
[16] = system: U-251
[17] = system: UACC-62
[18] = system: CCRF-CEM
[19] = system: MCF7
[20] = system: HCC 2998

SMILES | GI50 [1] | GI50 [2] | GI50 [3] | GI50 [4] | GI50 [5] | GI50 [6] | GI50 [7] | GI50 [8] | GI50 [9] | GI50 [10] | GI50 [11] | GI50 [12] | GI50 [13] | GI50 [14] | GI50 [15] | GI50 [16] | GI50 [17] | GI50 [18] | GI50 [19] | GI50 [20]
Nc1ncnc2c1ncn2C1OC(CO)C(O)C1N (stereo unspecified) | > 100 µM (inactive) | > 100 µM (inactive) | > 100 µM (inactive) | > 100 µM (inactive) | > 100 µM (inactive) | > 100 µM (inactive) | > 100 µM (inactive) | > 100 µM (inactive) | > 100 µM (inactive) | > 100 µM (inactive) | > 100 µM (inactive) | > 100 µM (inactive) | > 100 µM (inactive) | > 100 µM (inactive) | > 100 µM (inactive) | > 100 µM (inactive) | > 100 µM (inactive) |  |  | 
Cn1c(Nc2ccccc2)c(/C=N\c2ccccc2)c(=O)n(C)c1=O |  |  | > 100 µM (inactive) | 97.7 µM (inactive) | > 100 µM (inactive) | 61.4 µM (inactive) | > 100 µM (inactive) | 82.6 µM (inactive) | > 100 µM (inactive) | 75.9 µM (inactive) | 89.5 µM (inactive) | 94 µM (inactive) | 62.1 µM (inactive) |  | > 100 µM (inactive) | 30 µM (inactive) | > 100 µM (inactive) | > 100 µM (inactive) | > 100 µM (inactive) | 
CCCCC(=O)Nc1ccc2cc(C(=O)OC)c(=O)[nH]c2n1 | > 100 µM (inactive) | > 100 µM (inactive) |  | > 100 µM (inactive) | > 100 µM (inactive) | > 100 µM (inactive) | > 100 µM (inactive) | > 100 µM (inactive) | > 100 µM (inactive) | > 100 µM (inactive) | > 100 µM (inactive) | > 100 µM (inactive) | > 100 µM (inactive) | > 100 µM (inactive) | > 100 µM (inactive) | > 100 µM (inactive) |  | 59.4 µM (inactive) | > 100 µM (inactive) | > 100 µM (inactive)
O=c1ccn(Cc2ccccc2CCl)c(=O)[nH]1 | 26.9 µM (inactive) | 25 µM (inactive) | 32.4 µM (inactive) | 26.5 µM (inactive) | 26.2 µM (inactive) |  | 28.9 µM (inactive) | 20.4 µM (inactive) |  | 24 µM (inactive) | 23.3 µM (inactive) | 24 µM (inactive) | 46.5 µM (inactive) | 27.7 µM (inactive) | 35.5 µM (inactive) | 29.7 µM (inactive) | 26.9 µM (inactive) | 30.7 µM (inactive) | 23.6 µM (inactive) | 22.7 µM (inactive)
CCSc1cc(C(=O)OC)c2n(c1=O)CCCC2 | > 100 µM (inactive) | > 100 µM (inactive) | > 100 µM (inactive) | > 100 µM (inactive) | > 100 µM (inactive) | > 100 µM (inactive) | > 100 µM (inactive) | > 100 µM (inactive) |  | > 100 µM (inactive) | > 100 µM (inactive) | > 100 µM (inactive) | > 100 µM (inactive) |  | > 100 µM (inactive) | > 100 µM (inactive) | > 100 µM (inactive) | > 100 µM (inactive) | > 100 µM (inactive) | 
CC(C)=NN/C=N\C(C#N)=C(/N)C#N | > 100 µM (inactive) | > 100 µM (inactive) | > 100 µM (inactive) |  | > 100 µM (inactive) |  |  | > 100 µM (inactive) | > 100 µM (inactive) | > 100 µM (inactive) | > 100 µM (inactive) | > 100 µM (inactive) | > 100 µM (inactive) | > 100 µM (inactive) | > 100 µM (inactive) | > 100 µM (inactive) | > 100 µM (inactive) | > 100 µM (inactive) | > 100 µM (inactive) | 0.262 µM (active)
COc1ccc(/C(C)=N/NC(=S)N(C)C)c(O)c1 | 6.41 µM (inactive) | 4.92 µM (inactive) | 11.5 µM (inactive) | 4.92 µM (inactive) | 2.72 µM (inactive) | 5.96 µM (inactive) | 27.7 µM (inactive) | 8.11 µM (inactive) | 7.74 µM (inactive) |  | 4.05 µM (inactive) |  | 3.84 µM (inactive) | 36.3 µM (inactive) | 5.28 µM (inactive) | 7.83 µM (inactive) | 4.35 µM (inactive) | 4.49 µM (inactive) |  | 24.6 µM (inactive)
Cc1cc(NC(=O)C(=O)Cc2cnc3ccccc3n2)c(S(=O)(=O)O)cc1Cl | > 100 µM (inactive) | > 100 µM (inactive) | > 100 µM (inactive) | > 100 µM (inactive) | > 100 µM (inactive) | > 100 µM (inactive) | > 100 µM (inactive) | > 100 µM (inactive) | > 100 µM (inactive) |  | > 100 µM (inactive) | > 100 µM (inactive) | > 100 µM (inactive) |  | > 100 µM (inactive) | > 100 µM (inactive) | > 100 µM (inactive) | > 100 µM (inactive) | > 100 µM (inactive) | > 100 µM (inactive)
O=C1C(=O)C(CCCO)(CCCO)CCCCCCCCC1(CCCO)CCCO | > 100 µM (inactive) | > 100 µM (inactive) | 75.7 µM (inactive) | 78.5 µM (inactive) | 37.4 µM (inactive) |  | 61.2 µM (inactive) | > 100 µM (inactive) | < 0.01 µM (active) | 17.3 µM (inactive) | > 100 µM (inactive) | 80.4 µM (inactive) | > 100 µM (inactive) | 18.6 µM (inactive) | > 100 µM (inactive) | 66.5 µM (inactive) | 88.1 µM (inactive) |  | 55.1 µM (inactive) | > 100 µM (inactive)
CC(=O)c1c(SCCN2CCCCCC2)n(-c2ccccc2)c(=S)n(-c2ccccc2)c1=O | 1.68 µM (inactive) | 3.85 µM (inactive) | 2.17 µM (inactive) | 18.6 µM (inactive) | 2.15 µM (inactive) | 14.4 µM (inactive) | 12.9 µM (inactive) | 17.3 µM (inactive) | 0.384 µM (active) | 1.73 µM (inactive) | 35.9 µM (inactive) | 6 µM (inactive) | 48.3 µM (inactive) | 1.09 µM (active) | 2.04 µM (inactive) | 15.9 µM (inactive) | 7.85 µM (inactive) | 0.0462 µM (active) |  | 4.3 µM (inactive)
COc1ccc(OC)c(C(=O)c2cccc(C(=O)c3cc(OC)ccc3OC)n2)c1 | 43.5 µM (inactive) | 71.8 µM (inactive) | 93.1 µM (inactive) | 33.9 µM (inactive) | 33.6 µM (inactive) | 58.7 µM (inactive) |  | 20 µM (inactive) |  | 5.12 µM (inactive) | 29.9 µM (inactive) | 28.6 µM (inactive) | 46.1 µM (inactive) | 32.7 µM (inactive) | 39.6 µM (inactive) | 27.4 µM (inactive) | 31.1 µM (inactive) | 46.8 µM (inactive) | 26.5 µM (inactive) | 46.9 µM (inactive)
CCOC(=O)C(=[N+]=[N-])C(=O)CN1C(=O)C2CC(C)=C(C)CC2C1O (stereo unspecified) | > 100 µM (inactive) |  | > 100 µM (inactive) | > 100 µM (inactive) | > 100 µM (inactive) |  | > 100 µM (inactive) | > 100 µM (inactive) | > 100 µM (inactive) | > 100 µM (inactive) | > 100 µM (inactive) | > 100 µM (inactive) |  | > 100 µM (inactive) | > 100 µM (inactive) | > 100 µM (inactive) | > 100 µM (inactive) | > 100 µM (inactive) | > 100 µM (inactive) | > 100 µM (inactive)
O=C1C=C(C2=CC(=O)C(=O)c3ccccc32)c2ccccc2C1=O | 21 µM (inactive) | 22 µM (inactive) | 14.9 µM (inactive) | 18.6 µM (inactive) | 6.46 µM (inactive) | 15.6 µM (inactive) | 1.93 µM (inactive) | 5.07 µM (inactive) | 6.17 µM (inactive) | 10.9 µM (inactive) | 21.2 µM (inactive) | 19.4 µM (inactive) | 44.1 µM (inactive) |  | 5.01 µM (inactive) | 5.47 µM (inactive) | 5.37 µM (inactive) | 1.98 µM (inactive) | 9.98 µM (inactive) | 
CCCCCc1c(CCCC)c(O)nc2nc(NC(=O)CCCC)ccc12 | > 100 µM (inactive) | > 100 µM (inactive) |  | > 100 µM (inactive) | > 100 µM (inactive) | > 100 µM (inactive) | > 100 µM (inactive) | > 100 µM (inactive) | > 100 µM (inactive) | > 100 µM (inactive) | > 100 µM (inactive) | > 100 µM (inactive) | > 100 µM (inactive) | 51.9 µM (inactive) | > 100 µM (inactive) | > 100 µM (inactive) |  | > 100 µM (inactive) | > 100 µM (inactive) | > 100 µM (inactive)
C=C1CCC([N+](=O)[O-])[C@](C)(N=O)CC[C@@H]2C1CC2(C)C (stereo partly specified) | 37 µM (inactive) | 34 µM (inactive) | > 100 µM (inactive) | 24.5 µM (inactive) | 27.4 µM (inactive) |  | > 10 µM (inactive) | 17.2 µM (inactive) | 26 µM (inactive) |  | 17.9 µM (inactive) |  | 57.7 µM (inactive) | 8.57 µM (inactive) | 16.9 µM (inactive) | 21.4 µM (inactive) | > 10 µM (inactive) | 6.62 µM (inactive) | 16.6 µM (inactive) | 
NCCCNCCSP(=O)(O)O [AMIFOSTINE] |  | > 678 µM (inactive) |  | 543 µM (inactive) |  |  |  | > 750 µM (inactive) | > 452 µM (inactive) | > 736 µM (inactive) | > 750 µM (inactive) | > 750 µM (inactive) | > 750 µM (inactive) |  | > 750 µM (inactive) | > 750 µM (inactive) | > 710 µM (inactive) | 512 µM (inactive) | > 750 µM (inactive) | > 733 µM (inactive)
